The results in this text go back to US20210228545A1, “METHODS OF TREATING CONDITIONS RELATED TO THE S1P1 RECEPTOR” (Arena Pharmaceuticals, Inc., priority 2018, published 2021).

The target of data set [1] is CYP1A2 (Homo sapiens, UniProt P05177). Description: Direct inhibition of CYP activity in human liver microsomes. Type of data set: in vitro ADME. The following applies: up to 10 μM. An excerpt: (§1) Known metabolism-dependent and/or direct inhibitors of CYP and UGT enzymes were included as positive controls, as applicable.
On the technique in general: Microsomes from liver hold many membrane-bound enzymes, among them those of drug oxidation.

The target of data set [2] is T1, CYP2B6 (Homo sapiens, UniProt P20813).
T1 construct: human liver microsomes from a pool of 200 individuals; from tissue; host or cells: human liver microsomes, pool of 200 individuals
The description is as above. The class given is in vitro ADME. The following applies: up to 10 μM.
From the text: as §1

In data set [3] the target is T2, CYP2C19 (Homo sapiens, UniProt P33261).
T2 construct: human liver microsomes from a pool of 200 individuals; from tissue; host or cells: human liver microsomes, pool of 200 individuals
The data set is described as above. Type of data set: in vitro ADME. The following applies: up to 10 μM.
From the text: as §1

For data set [4], the target named is T3, CYP2C8 (Homo sapiens, UniProt P10632).
T3 construct: human liver microsomes from a pool of 200 individuals; from tissue; host or cells: human liver microsomes, pool of 200 individuals
T3 sequence (P10632 1-490): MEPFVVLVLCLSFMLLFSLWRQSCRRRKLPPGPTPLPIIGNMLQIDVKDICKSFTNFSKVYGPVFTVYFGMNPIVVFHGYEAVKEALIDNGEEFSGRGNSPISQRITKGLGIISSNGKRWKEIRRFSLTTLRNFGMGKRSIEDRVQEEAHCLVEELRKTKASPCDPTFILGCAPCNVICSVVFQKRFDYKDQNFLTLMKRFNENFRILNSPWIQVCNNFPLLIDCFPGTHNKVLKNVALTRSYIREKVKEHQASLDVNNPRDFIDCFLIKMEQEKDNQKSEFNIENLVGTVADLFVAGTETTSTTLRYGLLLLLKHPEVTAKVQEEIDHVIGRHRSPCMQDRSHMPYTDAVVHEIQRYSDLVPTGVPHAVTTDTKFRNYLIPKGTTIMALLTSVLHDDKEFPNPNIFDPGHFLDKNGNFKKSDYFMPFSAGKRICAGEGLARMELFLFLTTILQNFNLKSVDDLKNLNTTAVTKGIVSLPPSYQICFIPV
The description is as above. Type of data set: in vitro ADME.
From the text: as §1

Data set [5] addresses T4, CYP2C9 (Homo sapiens, UniProt P11712).
T4 construct: human liver microsomes from a pool of 200 individuals; from tissue; host or cells: human liver microsomes, pool of 200 individuals
Described as above. Type of data set: in vitro ADME. The following applies: up to 10 μM.
From the text: as §1

In data set [6] the target is T5, CYP2D6 (Homo sapiens, UniProt P10635).
T5 construct: human liver microsomes from a pool of 200 individuals; from tissue; host or cells: human liver microsomes, pool of 200 individuals
The description is as above. Type of data set: in vitro ADME. The following applies: up to 10 μM.
From the text: as §1

In data set [7] the test system is CYP3A4/5. The data set is described as above. The class given is in vitro ADME. The following applies: up to 10 μM.
From the text: as §1

Data set [8] concerns the target T6, BCRP (Homo sapiens, UniProt Q9UNQ0).
T6 sequence (Q9UNQ0 1-655): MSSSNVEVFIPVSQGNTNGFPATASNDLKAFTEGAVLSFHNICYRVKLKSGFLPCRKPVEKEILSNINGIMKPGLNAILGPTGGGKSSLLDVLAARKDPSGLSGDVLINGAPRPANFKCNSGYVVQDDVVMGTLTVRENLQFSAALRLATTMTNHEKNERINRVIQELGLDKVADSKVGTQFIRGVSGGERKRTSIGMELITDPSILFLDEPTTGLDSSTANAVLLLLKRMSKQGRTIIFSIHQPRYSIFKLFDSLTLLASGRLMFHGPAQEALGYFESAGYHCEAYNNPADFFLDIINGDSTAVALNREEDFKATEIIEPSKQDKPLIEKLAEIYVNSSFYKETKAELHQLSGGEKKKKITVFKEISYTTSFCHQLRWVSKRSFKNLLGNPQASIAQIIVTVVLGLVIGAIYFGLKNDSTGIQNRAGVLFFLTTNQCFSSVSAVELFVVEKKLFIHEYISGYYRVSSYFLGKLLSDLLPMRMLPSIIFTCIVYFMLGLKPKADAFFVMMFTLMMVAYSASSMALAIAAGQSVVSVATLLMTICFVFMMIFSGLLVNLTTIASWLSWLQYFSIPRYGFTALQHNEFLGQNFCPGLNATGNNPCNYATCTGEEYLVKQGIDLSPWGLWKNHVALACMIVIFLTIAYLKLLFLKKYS
The data set can be described thus: Transporter inhibition, MDCKII-BCRP cells. The class given is in vitro ADME.

The subject of data set [9] is peripheral blood lymphocyte (PBL) counts. Description: Phase 1 single dosing study: peripheral blood lymphocyte counts. Type of data set: in vivo, human. As for the experimental part:
Compound 1 was administered as the L-arginine salt.
There were no other clinically significant safety issues with respect to vital signs, ECGs, pulmonary function tests, ophthalmoscopy, or clinical laboratory tests with the exception of expected pharmacological effects on peripheral blood lymphocyte counts. Dosing at the 3 and 5 mg induced a dose responsive decline in the absolute number of peripheral blood B cells, T cells, NK cells, and all T cell subsets except TEM cells. Total peripheral blood lymphocyte (PBL) counts were reduced by 2-4 hours after dosing, reaching a nadir by hour 8 which persisted for 24 hours with recovery to baseline over the next 4 days. PBL counts were reduced by ˜40% and ˜55% at the 3 mg and 5 mg dose levels. […] These findings are therefore consistent with the anticipated pharmacodynamic effects of S1P receptor agonists in preclinical studies and in humans (Gergely et al., Br Pharmacol 167(5):1035-1047, 2012; Brossard et al., Br J Clin Pharmacol 2013 April 18. doi:10.1111/bcp.12129. [Epub ahead of print] PubMed PMID: 23594176, and Kovarik et al., J Clin Pharmacol 44(5):532-537, 2004.)

Bounds are passed on as bounds.

As usually defined, the inhibition is the share of the control response that was lost under treatment. Higher therefore signals a strong effect. One may read the IC50 as the concentration at which inhibition is half-maximal. A lower IC50 goes with greater potency in that assay.

T2 sequence (P33261 whole entry): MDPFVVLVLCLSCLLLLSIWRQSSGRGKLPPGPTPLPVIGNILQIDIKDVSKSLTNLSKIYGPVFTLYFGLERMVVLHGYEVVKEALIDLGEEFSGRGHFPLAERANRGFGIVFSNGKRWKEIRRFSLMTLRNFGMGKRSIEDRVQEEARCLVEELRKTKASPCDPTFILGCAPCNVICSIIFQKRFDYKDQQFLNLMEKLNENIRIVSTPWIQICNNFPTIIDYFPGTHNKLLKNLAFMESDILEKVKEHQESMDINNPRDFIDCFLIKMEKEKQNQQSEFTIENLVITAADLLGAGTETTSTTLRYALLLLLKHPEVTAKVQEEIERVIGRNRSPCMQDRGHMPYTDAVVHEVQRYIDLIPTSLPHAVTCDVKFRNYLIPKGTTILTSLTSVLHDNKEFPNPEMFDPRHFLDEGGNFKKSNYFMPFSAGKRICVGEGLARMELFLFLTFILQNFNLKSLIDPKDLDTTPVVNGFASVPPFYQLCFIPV
T5 sequence (P10635 whole entry): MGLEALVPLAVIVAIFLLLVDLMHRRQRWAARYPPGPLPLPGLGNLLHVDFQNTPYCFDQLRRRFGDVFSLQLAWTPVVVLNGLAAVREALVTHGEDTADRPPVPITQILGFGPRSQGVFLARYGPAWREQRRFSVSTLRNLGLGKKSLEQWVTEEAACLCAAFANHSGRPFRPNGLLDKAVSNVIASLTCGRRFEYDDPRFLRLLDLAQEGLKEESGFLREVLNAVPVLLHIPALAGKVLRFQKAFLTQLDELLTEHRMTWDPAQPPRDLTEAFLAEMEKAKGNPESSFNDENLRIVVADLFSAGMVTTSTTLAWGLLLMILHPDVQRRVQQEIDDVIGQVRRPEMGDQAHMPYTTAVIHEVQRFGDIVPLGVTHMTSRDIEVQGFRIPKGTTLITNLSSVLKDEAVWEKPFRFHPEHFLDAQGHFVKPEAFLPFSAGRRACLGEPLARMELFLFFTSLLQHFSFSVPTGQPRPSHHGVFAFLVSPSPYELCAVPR
T4 sequence (P11712 whole entry): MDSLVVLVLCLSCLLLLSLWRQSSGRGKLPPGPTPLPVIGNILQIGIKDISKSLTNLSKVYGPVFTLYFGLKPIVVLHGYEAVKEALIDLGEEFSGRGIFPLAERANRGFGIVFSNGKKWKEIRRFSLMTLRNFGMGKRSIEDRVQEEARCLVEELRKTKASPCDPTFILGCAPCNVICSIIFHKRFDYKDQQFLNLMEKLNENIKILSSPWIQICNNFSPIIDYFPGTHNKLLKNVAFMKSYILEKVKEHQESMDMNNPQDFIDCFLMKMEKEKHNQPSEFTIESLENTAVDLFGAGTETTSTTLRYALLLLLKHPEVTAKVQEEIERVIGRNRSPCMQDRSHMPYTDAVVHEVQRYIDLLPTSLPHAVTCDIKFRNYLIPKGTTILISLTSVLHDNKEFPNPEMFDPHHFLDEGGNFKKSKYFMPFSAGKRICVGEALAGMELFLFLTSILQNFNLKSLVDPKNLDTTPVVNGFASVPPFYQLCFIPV
Sequence of CYP1A2 (P05177 whole entry): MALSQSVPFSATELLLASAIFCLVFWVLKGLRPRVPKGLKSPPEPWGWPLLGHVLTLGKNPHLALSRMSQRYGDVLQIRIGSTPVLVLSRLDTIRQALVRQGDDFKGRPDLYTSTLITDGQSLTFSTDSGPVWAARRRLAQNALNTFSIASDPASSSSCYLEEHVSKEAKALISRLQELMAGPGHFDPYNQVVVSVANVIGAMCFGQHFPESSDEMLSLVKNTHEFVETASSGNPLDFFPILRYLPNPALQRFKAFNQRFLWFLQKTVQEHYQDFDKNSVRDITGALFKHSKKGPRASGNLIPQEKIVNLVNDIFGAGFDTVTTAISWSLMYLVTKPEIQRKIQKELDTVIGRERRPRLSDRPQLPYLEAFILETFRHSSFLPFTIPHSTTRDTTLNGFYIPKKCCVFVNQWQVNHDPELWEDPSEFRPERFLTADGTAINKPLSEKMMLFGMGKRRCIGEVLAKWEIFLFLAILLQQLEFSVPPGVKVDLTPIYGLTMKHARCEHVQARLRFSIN
T1 sequence (P20813 whole entry): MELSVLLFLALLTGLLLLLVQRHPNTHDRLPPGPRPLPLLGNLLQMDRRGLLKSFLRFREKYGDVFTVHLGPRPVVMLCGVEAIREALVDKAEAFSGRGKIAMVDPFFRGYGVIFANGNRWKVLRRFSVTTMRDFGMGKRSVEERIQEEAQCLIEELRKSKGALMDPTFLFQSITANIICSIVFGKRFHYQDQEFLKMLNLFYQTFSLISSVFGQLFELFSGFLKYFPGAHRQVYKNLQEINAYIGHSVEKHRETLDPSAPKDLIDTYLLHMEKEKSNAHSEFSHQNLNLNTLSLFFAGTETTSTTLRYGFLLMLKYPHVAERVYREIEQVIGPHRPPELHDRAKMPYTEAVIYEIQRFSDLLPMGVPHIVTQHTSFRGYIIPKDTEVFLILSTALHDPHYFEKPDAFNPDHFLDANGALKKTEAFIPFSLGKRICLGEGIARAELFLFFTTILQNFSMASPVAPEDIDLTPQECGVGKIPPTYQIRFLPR

In the case of `O=C(O)C[C@H]1CCc2c1[nH]c1ccc(OCc3ccc(C4CCCC4)c(C(F)(F)F)c3)cc21` [Compound 1, (R)-2-(7-(4-cyclopentyl-3-(trifluoromethyl)benzyloxy)-1,2,3,4-tetrahydrocyclopenta[b]indol-3-yl)acetic acid], the “Direct inhibition of CYP1A2 activity” value in data set [1] is “Little or no direct inhibition”. Further, the “Direct inhibition of CYP2B6 activity” value in data set [2] is “Little or no direct inhibition”. Further, the “Direct inhibition of CYP2C19 activity” value in data set [3] is on record as “Little or no direct inhibition”. In [4], this compound registered an inhibition at 1 µM of 22% and an inhibition at 10 µM of around 100%. The “Direct inhibition of CYP2C9 activity” value in [5] was “Little or no direct inhibition”. Moreover, in data set [6], the “Direct inhibition of CYP2D6 activity” value is “Little or no direct inhibition”. The “Direct inhibition of CYP3A4/5 activity” value in data set [7] is on record as “Little or no direct inhibition”. Also, in data set [8] (10 and 100 μM, post-assay TEER below acceptance criteria), the “Reduction of corrected efflux ratio of prazosin (1 μM) across MDCKII-BCRP cells” value is listed as “more than 50%”. In addition, the concentration for half-maximal inhibition (IC50) in [8] (MDCKII-BCRP cells, prazosin (1 μM), 0.03 to 30 μM) came to 35.7 µM. Also, the “Reduction of PBL counts” value in data set [9] (3 mg single dose) was around 40%. Also, the “Reduction of PBL counts” value in [9] (5 mg single dose) was around 55%. In [9] (3 and 5 mg), the “Time after dosing by which total PBL counts were reduced” value lay within 2 to 4 h. Moreover, in data set [9] (3 and 5 mg, persisted for 24 hours), the “Time of PBL nadir” value was at most 8 h. Moreover, the “Recovery of PBL counts to baseline” value in data set [9] (after nadir) came out at 4 days.
